# Patent publication US20250057756A1, “FORMULATIONS AND DOSES OF PEGYLATED URICASE” (Cartesian Therapeutics, Inc., priority 2016, published 2025)
# Values joined by “and” are separate entries in the source; they are usually repeats but may differ in a detail not shown here. Equal entries are not always repeated. Where two headings read alike, the source gives them in different places.
# Columns and labels:
# [1] = cited from earlier work; for patients with gout flares requiring treatment in a month: colchicine prophylaxis
# serum uric acid (SUA) = conditions: cited from earlier work
# [2] = cited from earlier work; for subjects requiring treatment for at least one gout flare: first 8 weeks, with gout flare prophylaxis
# serum uric acid [3] = test: Phase 1b clinical trial: serum uric acid; type: in vivo, human
# Method: (§1) The Phase 1b clinical trial enrolled 63 patients with serum uric acid levels greater than 6 mg/dl separated into 11 cohorts. A single intravenous infusion of SVP Rapamycin alone at the following ascending dose levels was administered to four cohorts in ascending order. Each cohort consisted of seven patients and were designated as follows: Cohort #1 (0.03 mg/kg), Cohort #3 (0.1 mg/kg), Cohort #5 (0.3 mg/kg) and Cohort #7 (0.5 mg/kg) collectively the SVP Rapamycin Cohorts. After a cohort of the SVP-Rapamycin alone had successfully and safely been dosed the corresponding dose level of SVP Rapamycin was combined with a fixed dose of pegsiticase (0.4 mg/kg). The combination was co-administered sequentially as a single intravenous infusion, with the SVP Rapamycin infusion preceding the pegsiticase infusion. […] The subjects were monitored during a 30 day period post infusion with visits occurring on day 7, 14,21 and the end of trial visit on day 30. Blood and serum of each patient was evaluated for serum uric acid, ADAs (specifically anti-PEG, anti-uricase and anti-pegsiticase) and safety parameters. […]
# [4] = Phase 1a and Phase 1b clinical trials: safety and tolerability; type: in vivo, human; conditions: 85 subjects dosed in Phase 1a and Phase 1b
# Method: (§2) The Phase 1a clinical trial for SEL 212 was an ascending dose trial of pegsiticase alone in 22 subjects with elevated serum uric acid levels greater than 6 mg/dl who were separated into five cohorts. Each cohort received a single intravenous infusion of pegsiticase at the following dose levels of 0.1 mg/kg for Cohort #1, 0.2 mg/kg for Cohort #2, 0.4 mg/kg for Cohort #3, 0.8 mg/kg for Cohort #4 and 1.2 mg/kg for Cohort #5. Dosing began with the lowest dose and only after an entire cohort was safely dosed was the next cohort started. The subjects were monitored during a 30 day period post infusion with visits occurring on day 7, 14,21 and the end of trial visit on day 30. Blood and serum of each patient was evaluated for serum uric acid, ADAs (specifically anti-peg, anti-uricase and anti-pegsiticase) and safety parameters.
# The Phase 1b clinical trial enrolled 63 patients with serum uric acid levels greater than 6 mg/dl separated into 11 cohorts. A single intravenous infusion of SVP Rapamycin alone at the following ascending dose levels was administered to four cohorts in ascending order. […] The subjects were monitored during a 30 day period post infusion with visits occurring on day 7, 14,21 and the end of trial visit on day 30. Blood and serum of each patient was evaluated for serum uric acid, ADAs (specifically anti-PEG, anti-uricase and anti-pegsiticase) and safety parameters. […]
# uricase specific ADAs [5] = test: Phase 1a clinical trial: uricase specific ADAs; type: in vivo, human; conditions: single infusion; varying levels
# Method: as §2
# The serum uric acid levels were measured at baseline and days seven, 14, 21 and 30 and uricase specific ADA levels at baseline and days seven, 14 and 30 following a single intravenous injection of pegsiticase. Uricase specific ADA levels at day 21 in the Phase 1a clinical trial were not measured. […]
# uricase specific ADAs [6] = test: Uricase specific ADA formation in uricase deficient mice; type: in vivo; conditions: treated days 0, 7 and 14, pegsiticase alone challenge days 35 and 42
# Method: (§3) A pharmacology study in mice that were genetically deficient in endogenous uricase was conducted. The study evaluated the efficacy of a dose regimen consisting of three immunizations with SEL 212 followed by doses of pegsiticase alone in preventing the formation of ADAs to pegsiticase. The treatment period consisted of the first 14 days of the study. In the study, mice were separated into three treatment groups. During the treatment period: • the first group, referred to as the Untreated Group, received no treatment; • the second group, referred to as the Pegsiticase Group, was treated with pegsiticase alone; and • the third group, referred to as the SVP Rapamycin+Pegsiticase Group, was treated with SVP Rapamycin co administered with pegsiticase.
# (§4) The Pegsiticase Group and SVP Rapamycin+Pegsiticase Group were treated on days zero, seven and 14 of the treatment period. Each group was then treated with pegsiticase alone on days 35 and 42 of the study, or the challenge period. Uricase specific ADA levels were recorded to determine the formation of ADAs to pegsiticase. Uric acid levels were measured to determine effectiveness of SVP Rapamycin co administered with pegsiticase in lowering uric acid levels below 6 mg/dl, which is the treatment target for gout patients.
# uric acid [7] = test: Uric acid levels in uricase deficient mice; type: in vivo
# Method: as §3, §4
# [8] = Gout flare in first month, pegsiticase alone (Phase 1, Table 1); type: in vivo, human
# Method: as §2
# When pegsiticase was administered alone in the Phase 1 described in Example 2, 57% (4 out of 7 patients) of those with a history of gout had signs of gout flare in the first month after receiving the study drug (Table 1). […] This subject was in the cohort that received only the rapamycin-comprising nanocarrier (without uricase). […] The flare was, therefore, unrelated to a change in serum uric acid. […] This patient's serum uric acid level dropped from 8.8 mg/dL to 0.1 mg/dL within 90 minutes following drug administration. So, although this subject had only been diagnosed with asymptomatic hyperuricemia before the study, a flare did seem to coincide with a drop in serum uric acid.
# serum uric acid [9] = test: Phase 1a clinical trial: serum uric acid; type: in vivo, human
# Method: as §2
# FIG. 4 depicts average serum uric acid levels of the Phase 1a clinical trial's five cohorts tested at different measurement intervals (Day 7, 14, 21 and 30) during the course of the 30 day period following the single intravenous infusion of pegsiticase at the outset of the trial.
# The serum uric acid levels were measured at baseline and days seven, 14, 21 and 30 and uricase specific ADA levels at baseline and days seven, 14 and 30 following a single intravenous injection of pegsiticase. Uricase specific ADA levels at day 21 in the Phase 1a clinical trial were not measured. Based on the results from the Phase 1a clinical trial, it was observed that pegsiticase at a tolerated dose is capable of achieving and maintaining a reduction of serum uric acid below the target of 6 mg/dl for a 30 day period in the absence of inhibitory uricase specific ADAs.
# [10] = Phase 1a clinical trial: safety; type: in vivo, human; conditions: single intravenous infusion, five dose levels 0.1-1.2 mg/kg
# Method: as §2
# uricase specific ADAs [11] = test: Phase 1b clinical trial: uricase specific ADAs; type: in vivo, human; conditions: pegsiticase alone 0.4 mg/kg, Cohort #3 Phase 1a and Cohort #9 Phase 1b; resulting in return to baseline serum uric acid
# Method: as §1
# In the Phase 1a clinical trial, uricase specific ADA levels at day 21 was not measured. […] As a result, for the Phase 1b clinical trial, uricase specific ADA levels at day 21 were monitored.
# uric acid [12] = conditions: cited from earlier work; for mean uric acid levels at four weeks: monthly dosing
# [13] = cited from earlier work; for flares per patient over the first 3 months: Phase 3; for Flares per patient month: Phase 3 trials
# ADAs = conditions: all KRYSTEXXA-treated subjects; cited from earlier work
compound,measurement,setting,value
"O=C(O)CSc1nnc(Br)n1-c1ccc(C2CC2)c2ccccc12 [Lesinurad, lesinurad]",patients with gout flares requiring treatment in a month,[1]; 200 mg daily,10 out of 46
same,Flares per patient month,[1]; 200 mg/day,0.22 flares per patient month
same,patients with gout flares requiring treatment in a month,[1]; 400 mg daily,13 out of 42
same,Flares per patient month,[1]; 400 mg/day,0.31 flares per patient month
same,patients with gout flares requiring treatment in a month,[1]; 600 mg daily,15 out of 48
same,Flares per patient month,[1]; 600 mg/day,0.31 flares per patient month
same,Time of efficacy (area under curve of mean sUA levels over time),serum uric acid (SUA); Lesinurad 200 mg/day,158.5
same,Time of efficacy (area under curve of mean sUA levels over time),serum uric acid (SUA); Lesinurad 400 mg/day,165.8
same,Time of efficacy (area under curve of mean sUA levels over time),serum uric acid (SUA); Lesinurad 600 mg/day,167.5
"Cc1nc(-c2ccc(OCC(C)C)c(C#N)c2)sc1C(=O)O [Febuxostat, febuxostat]",Flares per patient month,[2]; 80 mg/day,0.77 flares per patient month
same,subjects requiring treatment for at least one gout flare,[2]; 80 mg/day,55 out of 255
same,Flares per patient month,"[2]; 80 mg/day, listed as febuxostat",at least 0.22 flares per patient month
same,Flares per patient month,[2]; 120 mg/day,0.36 flares per patient month
same,subjects requiring treatment for at least one gout flare,[2]; 120 mg/day,90 out of 250
same,Flares per patient month,"[2]; 120 mg/day, listed as febuxostat",≥ 0.36 flares per patient month
Recombinant Pegylated Candida Urate Oxidase [pegsiticase],subjects returned to baseline serum uric acid levels by day 30,serum uric acid [3]; Cohort #9: pegsiticase alone 0.4 mg/kg,four of the five
same,serum uric acid levels,"serum uric acid [3]; pegsiticase alone 0.4 mg/kg, Cohort #3 Phase 1a and Cohort #9 Phase 1b, initial control, enzyme activity lost past day 14",below 6 mg/dL
same,tolerability,[4],well tolerated
same,uricase specific ADAs,uricase specific ADAs [5],induced uricase specific ADAs in all subjects
same,uricase specific ADA formation,uricase specific ADAs [6],developed uricase specific ADAs
same,uric acid levels,uric acid [7]; after the first dose in the treatment period,below 6 mg/dl
same,uric acid levels,uric acid [7]; subsequent doses in the treatment period and challenge period,> 6 mg/dL
same,Flare in 1st month,"[8]; individual subject with history of gout, SEL-037 0.8 mg/kg",no
same,Flare in 1st month,"[8]; individual subjects with history of gout, SEL-037 0.1 mg/kg, 0.1 mg/kg",no and yes (2×) and yes (positive for
same,Flare in 1st month,"[8]; individual subjects with history of gout, SEL-037 0.2 mg/kg, 0.2 mg/kg","no and yes (mild gout, right"
same,subjects with a history of gout with signs of gout flare in the first month,"[8]; pegsiticase alone, Phase 1, 4 out of 7 patients",57%
same,time average serum uric acid levels sustained below 6 mg/dl,"serum uric acid [9]; each cohort, depending on the dose level",14 to 30 days
same,time within which serum uric acid levels dropped significantly,"serum uric acid [9]; single intravenous infusion, all 22 subjects",approximately 10 hours
same,time after dosing by which serum uric acid levels rebounded,"serum uric acid [9]; single intravenous infusion, majority of patients",14 to 21 days
same,serious adverse events,[10],no serious adverse events
same,tolerability,[10],well tolerated
same,uricase specific ADA formation,uricase specific ADAs [11],uricase specific ADA formation at day 14
Pegloticase,"non-responders, share of subjects",uric acid [12]; monthly dosing cohorts,65%
same,subjects classified as responders (uric acid below 6 mg/dl for 80% of the time at months three and six),uric acid [12]; monthly dosing cohorts,35%
same,mean uric acid levels at four weeks,uric acid [12]; non-responders,above 6 mg/dl
same,mean uric acid levels at four weeks,uric acid [12]; responders,above 4 mg/dl
same,Time of efficacy (area under curve of mean sUA levels over time),"serum uric acid (SUA); Pegloticase biweekly, Nonresponders",Nonresponders-84.35
same,Time of efficacy (area under curve of mean sUA levels over time),"serum uric acid (SUA); Pegloticase biweekly, Responders",Responders-26.6
same,Time of efficacy (area under curve of mean sUA levels over time),"serum uric acid (SUA); Pegloticase monthly, Nonresponders",Nonresponders-99.75
same,Time of efficacy (area under curve of mean sUA levels over time),"serum uric acid (SUA); Pegloticase monthly, Responders",Responders-53.55
same,flares per patient over the first 3 months,"[13]; biweekly pegloticase, 85 patients",2.3
same,flares per patient over the first 3 months,"[13]; monthly pegloticase, 84 patients",2.7
same,Flares per patient month,[13]; pegloticase biweekly,0.77 flares per patient month
same,Flares per patient month,[13]; pegloticase monthly,0.90 flares per patient month
same,Flares per patient month,"[13]; pegloticase monthly, listed as pegloticase",0.9 flares per patient month
same,study subjects reporting one or more flares,"[13]; phase 2 trial, three-month study",88%
same,patients with gout flares in the first 3 months,"[13]; two phase 3 trials, despite gout flare prophylaxis (colchicine or NSAIDs)",about 80%
same,treated subjects that developed ADAs,ADAs,89%
